The test system of test [1] is Human plasma. The experiment in a line: Human plasma anticoagulation, prothrombin time (PT). It is filed as biochemical. The following applies: concentration required to double the PT, linear extrapolation. The protocol:
(§1) Dog plasma and rat plasma is obtained from conscious mixed-breed hounds (either sex, Hazelton-LRE, Kalamazoo, Mich., U.S.A.) or from anesthetized male Sprague-Dawley rats (Harlan Sprague-Dawley, Inc., Indianapolis, Ind., U.S.A.) by venipuncture into 3.8 percent citrate. Fibrinogen is prepared from in-date ACD human blood as the fraction I-2 according to previous procedures and specifications. Smith, Biochem. J., 185, 1-11 (1980); and Smith, et al., Biochemistry, 11, 2958-2967 (1972). Human fibrinogen is also purchased as 98 percent pure/plasmin free from American Diagnostica, Greenwich, Conn. Coagulation reagents ACTIN, Thromboplastin, and Human plasma are from Baxter Healthcare Corp., Dade Division, Miami, Fla. Bovine thrombin from Parke-Davis ([…], Mich.) is used for coagulation assays in plasma.
(§2) Coagulation assay procedures are as previously described. Smith, et al., Thrombosis Research, 50, 163-174 (1988). A CoAScreener coagulation instrument (American LABor, Inc.) is used for all coagulation assay measurements. The prothrombin time (PT) is measured by adding 0.05 mL saline and 0.05 mL Thromboplastin-C reagent to 0.05 mL test plasma. The activated partial thromboplastin time (APTT) is measured by incubation of 0.05 mL test plasma with 0.05 mL Actin reagent for 120 seconds followed by 0.05 mL CaCl2 (0.02M). The thrombin time (TT) is measured by adding 0.05 mL saline and 0.05 mL thrombin (10 NIH units/mL) to 0.05 mL test plasma. The compounds of formula I are added to human or animal plasma over a wide range of concentrations to determine prolongation effects on the APTT, PT, and TT assays. Linear extrapolations are performed to estimate the concentrations required to double the clotting time for each assay.

In test [2] the target is T1, t-PA (Homo sapiens, UniProt P00750).
T1 construct: purchased American Diagnostica, Greenwich, Conn
T1 sequence (P00750 36-562): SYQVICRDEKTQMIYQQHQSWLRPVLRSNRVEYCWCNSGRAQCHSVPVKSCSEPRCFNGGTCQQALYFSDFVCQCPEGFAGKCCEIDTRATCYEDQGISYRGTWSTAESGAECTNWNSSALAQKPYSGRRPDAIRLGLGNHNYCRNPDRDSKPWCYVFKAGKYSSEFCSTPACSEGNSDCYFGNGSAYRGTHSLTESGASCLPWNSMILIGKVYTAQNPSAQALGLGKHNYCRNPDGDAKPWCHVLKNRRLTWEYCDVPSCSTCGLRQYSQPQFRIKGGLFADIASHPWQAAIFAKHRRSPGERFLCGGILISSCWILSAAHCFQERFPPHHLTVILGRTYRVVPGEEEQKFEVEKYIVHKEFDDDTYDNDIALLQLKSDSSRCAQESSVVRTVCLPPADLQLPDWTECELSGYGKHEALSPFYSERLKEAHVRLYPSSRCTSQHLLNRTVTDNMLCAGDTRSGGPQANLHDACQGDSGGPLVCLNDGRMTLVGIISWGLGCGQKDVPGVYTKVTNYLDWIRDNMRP
The test can be described thus: Serine protease selectivity, chromogenic substrate (Kass), t-PA. It is filed as biochemical. The following applies: substrate H-D-Ile-Pro-Arg-p-nitroanilide. The protocol:
(§3) The assay is carried out by mixing 50 μL buffer (0.03M Tris, 0.15M NaCl, pH 7.4) with 25 μL of bovine thrombin or human thrombin solution (0.21 mg/mL of thrombostat bovine thrombin, Parke-Davis, or purified human thrombin, Enzyme Research Laboratories, South Bend, Ind., at about 8 NIH units/mL, in the same buffer) and 25 μL of test compound in a solvent (in 50% aqueous methanol, v:v). The 150 μL of an aqueous solution of the chromogenic substrate (at 0.25 mg/mL) are added and the rates of hydrolysis of the substrate are measured by monitoring the reactions at 405 nm for the release of p-nitroaniline. Standard curves are constructed by plotting free thrombin concentration against hydrolysis rate. The hydrolysis rates observed with test compounds are then converted to "free thrombin" values in the respective assays by use of the standard curves. The bound thrombin (bound to test compound) is calculated by subtracting the amount of free thrombin observed in each assay from the known initial amount of thrombin used in the assay. The amount of free inhibitor in each assay is calculated by subtracting the number of moles of bound thrombin from the number of moles of added inhibitor (test compound).
(§4) Kass is calculated for a range of concentrations of test compounds and the mean value is reported in units of liter per mole.
(§5) By substantially following the procedures described above for human thrombin, and using other human blood coagulation system serine proteases and proteases of the fibrinolytic system with the appropriate chromogenic substrates, identified below, selectivity of the compounds of the present invention with respect to the coagulation factor serine proteases and with respect to the fibrinolytic system serine proteases are evaluated as well as their substantial lack of interference with serine proteases of the fibrinolytic system. Thrombin inhibitors preferably should spare fibrinolysis induced by urokinase, tissue plasminogen activator (t-PA) and streptokinase. This would be important to the therapeutic use of such agents as an adjunct to streptokinase, t-PA or urokinase thrombolytic therapy and to the use of such agents as an endogenous fibrinolysis-sparing (with respect to t-PA and urokinase) antithrombotic agent. In addition to the lack of interference with the amidase activity of the fibrinolytic proteases, such fibrinolytic system sparing can be studied by the use of human plasma clots and their lysis by the respective fibrinolytic plasminogen activators.
(§6) Human plasmin is purchased from Boehringer Mannheim, Indianapolis, Ind.; nt-PA is purchased as single chain activity reference from American Diagnostica, Greenwich, Conn.; modified-t-PA6 (mt-PA6) is prepared at Eli Lilly and Company by procedure known in the art (See, Burck, et al., J. Biol. Chem., 265, […] (1990). Plasmin chromogenic substrate H-D-Val-Leu-Lys-p-nitroanilide and tissue plasminogen activator (t-PA) substrate H-D-Ile-Pro-Arg-p-nitroanilide are purchased from Kabi Vitrum, Stockholm, Sweden.

Test [3] has as its target T2, factor Xa (Homo sapiens, UniProt P00742).
T2 construct: Human factors X, Xa, IXa, XIa, and XIIa are purchased; purchased Enzyme Research Laboratories, South Bend, Ind
The experiment in a line: Serine protease selectivity, chromogenic substrate (Kass), factor Xa. Format: biochemical. The following applies: substrate N-Benzoyl-Ile-Glu-Gly-Arg-p-nitroanilide. On the procedure:
as §3, §4, §5
(§7) Human factors X, Xa, IXa, XIa, and XIIa are purchased from Enzyme Research Laboratories, South Bend, Ind.; human urokinase from Leo Pharmaceuticals, Denmark; and recombinant activated Protein C (aPC) is prepared at Eli Lilly and Co. substantially according to U.S. Pat. No. 4,981,952. Chromogenic substrates: N-Benzoyl-Ile-Glu-Gly-Arg-p-nitroanilide (for factor Xa); N-Cbz-D-Arg-Gly-Arg-p-nitroanilide (for factor IXa assay as the factor Xa substrate); Pyroglutamyl-Pro-Arg-p-nitroanilide (for Factor XIa and for aPC); H-D-Pro-Phe-Arg-p-nitroanilide (for factor XIIa); and Pyroglutamyl-Gly-Arg-p-nitroanilide (for urokinase); are purchased from KabiVitrum, Stockholm, Sweden, or from Midwest Biotech, Fishers, Ind. Bovine trypsin is purchased from Worthington Biochemicals, Freehold, N.J., and human plasma kallikrein from Kabi Vitrum, Stockholm, Sweden. Chromogenic substrate H-D-Pro-Phe-Arg-p-nitroanilide for plasma kallikrein is purchased from Kabi Vitrum, Stockholm, Sweden. N-Benzoyl-Phe-Val-Arg-p-nitroanilide, the substrate for human thrombin and for trypsin, is synthesized according to procedures described above for the compounds of the present invention, using known methods of peptide coupling from commercially available reactants or purchased from Midwest Biotech, Fishers, Ind.

Test [4] has as its target T3, Plasmin (Homo sapiens, UniProt P00747).
T3 construct: Human plasmin is purchased; purchased Boehringer Mannheim, Indianapolis, Ind
The test can be described thus: Serine protease selectivity, chromogenic substrate (Kass), plasmin. Format: biochemical. The following applies: substrate H-D-Val-Leu-Lys-p-nitroanilide. The protocol: as §3, §4, §5, §6

For test [5], the target named is Human Thrombin (Homo sapiens, UniProt P00734). The experiment in a line: Inhibition of amidase activity of thrombin (Kass). It is filed as biochemical. The following applies: apparent association constant, mean over a range of concentrations. On the procedure: as §3
The Kass value is the hypothetical equilibrium constant for the reaction between thrombin and the test compound (I). [drawing 54]
as §4

The target in test [6] is T4, Trypsin (Bos taurus, UniProt P00760).
T4 construct: Bovine trypsin is purchased; purchased Worthington Biochemicals, Freehold, N.J
T4 sequence (P00760 24-246): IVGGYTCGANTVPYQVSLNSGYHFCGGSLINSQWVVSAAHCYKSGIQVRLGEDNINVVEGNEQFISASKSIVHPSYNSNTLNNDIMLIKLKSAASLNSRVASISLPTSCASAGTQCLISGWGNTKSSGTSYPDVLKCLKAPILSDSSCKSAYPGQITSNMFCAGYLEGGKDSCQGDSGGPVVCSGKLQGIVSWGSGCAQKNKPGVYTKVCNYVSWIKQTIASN
The experiment in a line: Serine protease selectivity, chromogenic substrate (Kass), trypsin. It is filed as biochemical, bovine. The following applies: substrate N-Benzoyl-Phe-Val-Arg-p-nitroanilide. On the procedure:
as §3, §4, §5, §7

In test [7] the test system is Human plasma. The test can be described thus: Human plasma anticoagulation, activated partial thromboplastin time (APTT). It is filed as biochemical. The following applies: concentration required to double the APTT, linear extrapolation. On the procedure: as §1, §2
For test [8], the system named is Human plasma. The experiment in a line: Human plasma anticoagulation, thrombin time (TT). It is filed as biochemical. The following applies: concentration required to double the thrombin time, linear extrapolation. The protocol:
as §1, §2

T3 sequence (P00747 581-810 limits assumed): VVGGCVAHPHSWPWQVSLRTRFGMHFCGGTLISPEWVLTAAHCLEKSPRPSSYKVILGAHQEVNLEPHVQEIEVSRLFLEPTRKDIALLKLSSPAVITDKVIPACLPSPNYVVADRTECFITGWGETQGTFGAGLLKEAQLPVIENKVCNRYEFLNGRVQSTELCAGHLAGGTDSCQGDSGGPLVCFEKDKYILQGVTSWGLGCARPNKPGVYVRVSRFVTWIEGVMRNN
T3 sequence (P00747 97-580 partner limits assumed): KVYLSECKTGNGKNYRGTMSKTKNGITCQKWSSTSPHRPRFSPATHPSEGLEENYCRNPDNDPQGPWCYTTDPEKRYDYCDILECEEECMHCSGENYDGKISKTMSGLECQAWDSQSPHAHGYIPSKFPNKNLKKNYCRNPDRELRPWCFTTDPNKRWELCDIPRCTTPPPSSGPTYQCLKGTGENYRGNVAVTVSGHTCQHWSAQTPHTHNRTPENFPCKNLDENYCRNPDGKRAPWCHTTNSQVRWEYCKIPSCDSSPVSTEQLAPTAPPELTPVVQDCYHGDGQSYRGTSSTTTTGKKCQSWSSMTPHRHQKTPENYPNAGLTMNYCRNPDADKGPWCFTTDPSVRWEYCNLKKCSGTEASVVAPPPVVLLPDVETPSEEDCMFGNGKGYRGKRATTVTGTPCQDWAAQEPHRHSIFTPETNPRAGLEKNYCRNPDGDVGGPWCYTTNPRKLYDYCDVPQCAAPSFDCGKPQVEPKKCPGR
T2 sequence (P00742 235-488 limits assumed): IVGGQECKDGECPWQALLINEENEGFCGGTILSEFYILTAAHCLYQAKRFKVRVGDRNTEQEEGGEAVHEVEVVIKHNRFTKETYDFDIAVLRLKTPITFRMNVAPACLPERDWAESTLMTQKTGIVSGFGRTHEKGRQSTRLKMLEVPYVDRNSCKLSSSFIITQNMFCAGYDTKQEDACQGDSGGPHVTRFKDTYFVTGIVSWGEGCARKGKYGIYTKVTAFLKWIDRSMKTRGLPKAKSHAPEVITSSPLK
T2 sequence (P00742 41-179 partner limits assumed): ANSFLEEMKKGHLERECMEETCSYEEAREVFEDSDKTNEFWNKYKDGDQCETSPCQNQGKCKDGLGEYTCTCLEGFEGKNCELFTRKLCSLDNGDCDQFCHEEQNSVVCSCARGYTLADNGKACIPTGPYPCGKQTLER

Turning to `CC(=O)Nc1ccc(O[C@H]2C[C@@H](C(=O)N[C@H](C=O)CCCNC(=N)N)N(C(=O)[C@H]3CCCCN3)C2)cc1.Cl.Cl` (relative stereo) [Example 10, D-hPro-Pro(4-cis-(4-AcNH-phenoxy))-ArgH.2 HCl], in test [1], the “2x Clotting time, PT” value was 10,000 ng/mL. Besides, in test [2], the “Enzyme Kass, t-PA” value is 0.027 L/mol × 10^6. For the same compound, in test [3], the “Enzyme Kass, Xa” value was determined as 0.59 L/mol × 10^6. In test [4], the “Enzyme Kass, Plasmin” value stood at 3.4 L/mol × 10^6. The “Enzyme Kass, Human Thrombin” value in test [5] is given as 3.0 L/mol × 10^6. The “Enzyme Kass, Trypsin” value in test [6] is 63 L/mol × 10^6. In addition, the “2x Clotting time, APTT” value in test [7] is 2,200 ng/mL. Further, the “2x Clotting time, TT” value in test [8] was 480 ng/mL.

For `Cl.Cl.N=C(N)NCCCC(C=O)NC(=O)C1CC2CCCCC2N1C(=O)C1NCCC2CCCCC21` [Example 21, L-1-cis-Piq-cis-Ohi-ArgH.2 HCl], in test [1] (HCl), the “2x Clotting time, PT” value is reported as 30,776 ng/mL. In addition, in test [2] (HCl), the “Enzyme Kass, t-PA” value is 0.001 L/mol × 10^6. For the same compound, in test [3] (HCl), the “Enzyme Kass, Xa” value is listed as 0.03 L/mol × 10^6. Also, in test [4] (HCl), the “Enzyme Kass, Plasmin” value came out at 0.20 L/mol × 10^6. Further, the “Enzyme Kass, Human Thrombin” value in test [5] (HCl) is reported as 3.1 L/mol × 10^6. For the same compound, the “Enzyme Kass, Trypsin” value in test [6] (HCl) stood at 3.6 L/mol × 10^6. In test [7] (HCl), the “2x Clotting time, APTT” value is recorded as 16,234 ng/mL. Also, in test [8] (HCl), the “2x Clotting time, TT” value was 1,199 ng/mL.

On to `Cl.Cl.N=C(N)NCCC[C@@H](C=O)NC(=O)[C@@H]1C[C@H](Oc2cccc(C(=O)O)c2)CN1C(=O)[C@H]1CCCCN1` (relative stereo) [Example 19, D-hPro-Pro(4-cis-(3-COOH-phenoxy))-ArgH.2 HCl], for which the “2x Clotting time, PT” value in test [1] is 8,822 ng/mL. Further, in test [2], the “Enzyme Kass, t-PA” value is reported as 0.022 L/mol × 10^6. Further, the “Enzyme Kass, Xa” value in test [3] was 1.30 L/mol × 10^6. In test [4], the “Enzyme Kass, Plasmin” value turned out to be 0.50 L/mol × 10^6. Further, the “Enzyme Kass, Human Thrombin” value in test [5] came to 2.8 L/mol × 10^6. In test [6], the “Enzyme Kass, Trypsin” value was found to be 49.3 L/mol × 10^6. The “2x Clotting time, APTT” value in test [7] is given as 3,497 ng/mL. In addition, the “2x Clotting time, TT” value in test [8] is recorded as 345 ng/mL.

(Values after US5599793A, “Antithromobotic agents” (Eli Lilly and Company, priority 1995, dated 1997).)
